Experimental findings from US8278313B2, “Macrocyclic spiro pyrimidine derivatives” (Abbott Laboratories, priority 2008, dated 2012) are described below.

The target in experiment [1] is T1, histamine H4 receptor (Homo sapiens, UniProt Q9H3N8).
T1 construct: expressed in transfected cells
As to the kind of experiment: [3H]-histamine competition binding assay, membranes of HEK-293 cells transiently transfected with histamine H4 receptor. The note with it: Ki by Cheng-Prusoff equation; HEK-293 membranes, 25° C., 1 hour, pH 7.4; read-out: Potency (nM), displacement of 3H-histamine. The method, then: In this assay, membranes were prepared from HEK-293 cells transiently transfected with the pCINeo expression vector harboring the histamine H4 receptor by homogenization of the cells on ice in TE buffer (50 mM Tris-HCl buffer, pH 7.4, containing 5 mM EDTA), 1 mM benzamidine, 2 μg/ml aprotinin, […] leupeptin, and 1 μg/ml pepstatin. The homogenate was centrifuged at 40,000 g for 20 minutes at 4° C. This step was repeated, and the resulting pellet was resuspended in TE buffer. Aliquots were frozen at −70° C. until needed. On the day of assay, membranes were thawed and diluted with TE buffer. Competition radioligand binding assays were performed with increasing concentrations of test compound in the presence of [^3H]-histamine incubated at 25° C. for 1 hour in a total volume of 0.5 mL of 50 mM Tris, 5 mM EDTA, pH 7.4. All binding reactions were terminated by filtration under vacuum onto polyethylenimine (0.3%) presoaked Unifilters (PerkinElmer Life Sciences) or Whatman GF/B filters (Whatman, Clifton, N.J.), followed by three brief washes with 4 ml of ice-cold TE buffer. Bound radiolabel was determined by liquid scintillation counting. For all of the radioligand competition binding assays, IC50 values and Hill slopes were determined by Hill transformation of the data, and Ki values were determined by the Cheng-Prusoff equation.
In general terms: Displacement assays read how much labelled ligand stays bound in the presence of the test substance.

The target in experiment [2] is T1, histamine H4 receptor. As to the kind of experiment: In vitro histamine H4 potency in FLIPR (Ca2+ flux, Fluo-4) in HEK-293 cells coexpressing Gαqi5. The class given is cell-based. The note with it: Kb values for antagonists and inverse agonists, EC50 values for partial agonists; HEK-293 cells with Gαqi5, Fluo-4. From the text: There are many methods available to show the effectiveness of compounds as histamine H4 receptor ligands. Histamine H4 receptors from mammalian species have been cloned. Methods to clone, express, and assess the potency and functional activity of such cloned genes are well known to those skilled in the art of molecular biology. […] Before testing, cells are loaded with a Ca^+2 sensitive fluorescent dye, in this case Fluo-4. In the case of partial agonist or agonist ligands, addition of compound to the cells leads to the increase in intracellular Ca^+2, which is detected by FLIPR (Fluorescence Imaging Plate Reader; Molecular Devices, Sunnyvale, Calif.) technology. […] The fluorescence intensities measured before addition of the test compound are subtracted from the fluorescence intensities at later time points. Peak response values determined at each concentration of ligand are expressed as a percentage of the response obtained with the full agonist histamine. Concentration versus response data are analyzed to obtain compound potency as Kb values for antagonists and inverse agonists and as EC50 values for partial agonists.
A general note: Calcium assays in cells follow changes in intracellular calcium, usually with a dye or a luminescent sensor.

T1 sequence (Q9H3N8 whole entry, species assumed): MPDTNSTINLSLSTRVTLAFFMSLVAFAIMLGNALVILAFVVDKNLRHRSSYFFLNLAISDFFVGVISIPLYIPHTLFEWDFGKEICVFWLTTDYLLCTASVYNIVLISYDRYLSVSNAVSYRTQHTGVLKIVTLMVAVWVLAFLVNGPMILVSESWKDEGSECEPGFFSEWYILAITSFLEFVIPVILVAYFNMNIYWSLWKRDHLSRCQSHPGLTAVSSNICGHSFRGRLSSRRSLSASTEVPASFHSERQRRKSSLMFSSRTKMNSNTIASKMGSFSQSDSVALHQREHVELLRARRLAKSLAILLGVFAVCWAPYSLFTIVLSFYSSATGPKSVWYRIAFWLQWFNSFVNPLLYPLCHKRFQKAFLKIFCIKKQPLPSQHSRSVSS

With `CN[C@@H]1CCN(c2nc(N)nc3c2CCCC32CCCC2)C1` [Example 1, (R)-4′-(3-(methylamino)pyrrolidin-1-yl)-6′,7′-dihydro-5′H-spiro[cyclopentane-1,8′-quinazolin]-2′-amine], the Ki in experiment [1] was 2.6 nM. The “Potency (nM), in vitro histamine H4 potency in FLIPR” value (from here on “Potency (nM)”) in experiment [2] amounted to 2.9 nM.
Consider `Nc1nc(N2CCNCC2)c2c(n1)C1(CCCC1)CCC2` [Example 2, 4′-(piperazin-1-yl)-6′,7′-dihydro-5′H-spiro[cyclopentane-1,8′-quinazolin]-2′-amine], for which the Ki in experiment [1] came out at 1.1 nM. Further, in experiment [2], the “Potency (nM)” value is on record as 2.8 nM.
For `CNC1CN(c2nc(N)nc3c2CCCC32CCCC2)C1` [Example 3, 4′-(3-(methylamino)azetidin-1-yl)-6′,7′-dihydro-5′H-spiro[cyclopentane-1,8′-quinazolin]-2′-amine], in that order: 1.4 nM and 4.6 nM.
For `Nc1nc(N2CC[C@@H](N)C2)c2c(n1)C1(CCCC1)CCC2` [Example 4, (R)-4′-(3-aminopyrrolidin-1-yl)-6′,7′-dihydro-5′H-spiro[cyclopentane-1,8′-quinazolin]-2′-amine], the Ki in experiment [1] was determined as 4.6 nM. Further, the “Potency (nM)” value in experiment [2] amounted to 2.7 nM.
Turning to `Nc1nc(N2CC[C@H](N)C2)c2c(n1)C1(CCCC1)CCC2` [Example 5, (S)-4′-(3-aminopyrrolidin-1-yl)-6′,7′-dihydro-5′H-spiro[cyclopentane-1,8′-quinazolin]-2′-amine], the “Potency (nM)” value in experiment [2] stood at 53 nM.
In the case of `Nc1nc(N2CC[C@@H]3CNC[C@@H]32)c2c(n1)C1(CCCC1)CCC2` [Example 6, 4′-((3aR,6aR)-hexahydropyrrolo[3,4-b]pyrrol-1(2H)-yl)-6′,7′-dihydro-5′H-spiro[cyclopentane-1,8′-quinazolin]-2′-amine], the “Potency (nM)” value in experiment [2] is on record as 1097 nM.
For the compound `Nc1nc(N2CC[C@H]3CNC[C@H]32)c2c(n1)C1(CCCC1)CCC2` [Example 7, 4′-((3aS,6aS)-hexahydropyrrolo[3,4-b]pyrrol-1(2H)-yl)-6′,7′-dihydro-5′H-spiro[cyclopentane-1,8′-quinazolin]-2′-amine], the “Potency (nM)” value in experiment [2] came out at 1027 nM.
For `Nc1nc(N2CCCNCC2)c2c(n1)C1(CCCC1)CCC2` [Example 8, 4′-(1,4-diazepan-1-yl)-6′,7′-dihydro-5′H-spiro[cyclopentane-1,8′-quinazolin]-2′-amine], the Ki in experiment [1] came out at 2.8 nM. For the same compound, the “Potency (nM)” value in experiment [2] stood at 9.8 nM.
As to `Nc1nc(N2C[C@H]3CCCN[C@H]3C2)c2c(n1)C1(CCCC1)CCC2` [Example 9, 4′-((4aR,7aR)-tetrahydro-1H-pyrrolo[3,4-b]pyridin-6(2H,7H,7aH)-yl)-6′,7′-dihydro-5′H-spiro[cyclopentane-1,8′-quinazolin]-2′-amine], the Ki in experiment [1] came out at 3.4 nM. Moreover, in experiment [2], the “Potency (nM)” value is 8.5 nM.
Regarding `CN1CCC(Nc2nc(N)nc3c2CCCC32CCCC2)CC1` [Example 10, N4′-(1-methylpiperidin-4-yl)-6′,7′-dihydro-5′H-spiro[cyclopentane-1,8′-quinazoline]-2′,4′-diamine], the “Potency (nM)” value in experiment [2] is recorded as 22 nM.
`COC(=O)C1(N)CCN(c2nc(N)nc3c2CCCC32CCCC2)CC1` [Example 11, Methyl 4-amino-1-(2′-amino-6′,7′-dihydro-5′H-spiro[cyclopentane-1,8′-quinazoline]-4′-yl)piperidine-4-carboxylate]: in experiment [2], the “Potency (nM)” value is 12624 nM.
Turning to `Nc1nc(N2CCC(N)(C(=O)O)CC2)c2c(n1)C1(CCCC1)CCC2` [Example 12, 4-amino-1-(2′-amino-6′,7′-dihydro-5′H-spiro[cyclopentane-1,8′-quinazoline]-4′-yl)piperidine-4-carboxylic Acid], the “Potency (nM)” value in experiment [2] was found to be 21251 nM.
For the compound `Nc1nc(N2CC(N)C2)c2c(n1)C1(CCCC1)CCC2` [Example 13, 4′-(3-aminoazetidin-1-yl)-6′,7′-dihydro-5′H-spiro[cyclopentane-1,8′-quinazolin]-2′-amine], the “Potency (nM)” value in experiment [2] was 68851 nM.
`CN(C)CCOc1nc(N)nc2c1CCCC21CCCC1` [Example 14, 4′-(2-(dimethylamino)ethoxy)-6′,7′-dihydro-5′H-spiro[cyclopentane-1,8′-quinazolin]-2′-amine]: the “Potency (nM)” value in experiment [2] is on record as 7.8 nM.
For the compound `CN1CC[C@@H](Oc2nc(N)nc3c2CCCC32CCCC2)C1` [Example 15, (R)-4′-(1-methylpyrrolidin-3-yloxy)-6′,7′-dihydro-5′H-spiro[cyclopentane-1,8′-quinazolin]-2′-amine], in experiment [2], the “Potency (nM)” value was 20 nM.
As to `Nc1nc(N2CCNCC2)c2c(n1)C1(CCCCC1)CCCC2` [Example 16, 4-(piperazin-1-yl)-5,6,7,8-tetrahydrospiro[cyclohepta[d]pyrimidine-9,1′-cyclohexan]-2-amine], the Ki in experiment [1] is 9.3 nM. Besides, the “Potency (nM)” value in experiment [2] stood at 48 nM.
For `Nc1nc(N2CC[C@@H](N)C2)c2c(n1)C1(CCCCC1)CCCC2` [Example 17, (R)-4-(3-aminopyrrolidin-1-yl)-5,6,7,8-tetrahydrospiro[cyclohepta[d]pyrimidine-9,1′-cyclohexan]-2-amine], the Ki in experiment [1] turned out to be 18 nM. The “Potency (nM)” value in experiment [2] is recorded as 47 nM.
Turning to `Nc1nc(N2C[C@H]3CCCN[C@H]3C2)c2c(n1)C1(CCCCC1)CCCC2` [Example 18, 4-((4aR,7aR)-tetrahydro-1H-pyrrolo[3,4-b]pyridin-6(2H,7H,7aH)-yl)-5,6,7,8-tetrahydrospiro[cyclohepta[d]pyrimidine-9,1′-cyclohexan]-2-amine], in experiment [2], the “Potency (nM)” value is 99 nM.
Take `Nc1nc(N2CCNCC2)c2c(n1)C1(CCCC2)Cc2ccccc2C1` [Example 19, 4-(piperazin-1-yl)-1′,3′,5,6,7,8-hexahydrospiro[cyclohepta[d]pyrimidine-9,2′-inden]-2-amine]: in experiment [2], the “Potency (nM)” value turned out to be 26915 nM.
Same read-out and setting: next, `Nc1nc(N2CC[C@@H](N)C2)c2c(n1)C1(CCCC2)Cc2ccccc2C1` [Example 20, (R)-4-(3-aminopyrrolidin-1-yl)-1′,3′,5,6,7,8-hexahydrospiro[cyclohepta[d]pyrimidine-9,2′-inden]-2-amine]: 499 nM.
